Test results taken from ChEMBL document CHEMBL1157278, “A new sesquiterpene as an antifouling substance from a palauan marine sponge, dysidea herbacea” (1999).
Calls of active or inactive are those of the source. The rule behind the calls is not given here.

Columns and labels:
Mytilus edulis [1] = assay: Antifouling activity in Mytilus edulis galloprovincialis assessed as foot contraction at 100 ppm; type: functional
Mytilus edulis [2] = assay: Antifouling activity in Mytilus edulis galloprovincialis assessed as foot contraction at <10 ppm; type: functional, organism-based

For C=C1[C@@H](C)C[C@H]2C[C@]1(C)CCC1=CC(=O)O[C@@]12O, the Activity (Mytilus edulis [1]) was 100% and the Activity (Mytilus edulis [2]) was “inactive”.
